Test results reported in EP4603105A1, “PHARMACEUTICAL COMPOSITION CONTAINING CYCLIC COMPOUND HAVING SELECTIVE KRAS INHIBITORY EFFECT AGAINST HRAS AND NRAS” (CHUGAI SEIYAKU KABUSHIKI KAISHA, priority 2022, dated 2024).
*1 amine or outer side, *2 acyl side, *3 side chain or, on linkers, in order; H or OH if unused. Where a SMILES comes first, the peptide text is derived from it. Bridges are numbered along the chain shown (N, C = ends). [ ]: non-standard residue; d: D form. The star is where a group is joined. hPhe(3,5-F2-4-CF3) = N[C@@H](CCc1cc(F)c(C(F)(F)F)c(F)c1)C(=O)O; hPhe(3-Cl-4-CF3) = N[C@@H](CCc1ccc(C(F)(F)F)c(Cl)c1)C(=O)O; NPrPhe(4-CF3) = CCCN[C@@H](Cc1ccc(C(F)(F)F)cc1)C(=O)O; NMePhe(4-F) = CN[C@@H](Cc1ccc(F)cc1)C(=O)O; X16 = O=C([C@@H](N[*:1])C1CC(F)(F)C1)[*:2]; NMeGly(cPent) = CN[C@H](C(=O)O)C1CCCC1; NMeD = CN[C@@H](CC(=O)O)C(=O)O; NMeL = CN[C@@H](CC(C)C)C(=O)O; Morpholide = C1CN(*)CCO1; Ac5c = NC1(C(=O)O)CCCC1; Sar = CNCC(=O)O

Experiments:
[1] = molecular target: HRAS wild-type protein (Homo sapiens, UniProt P01112); assay: Binding to HRAS by surface plasmon resonance (SPR), KD and KD ratio to KRAS
Summary of the method: (§1)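 Each cycle, GDP-bound biotin-Avi RAS was captured (~100–300 RU), compound concentrations were injected low to high for 75 s each at 100 µL/min, then the chip was regenerated. Buffer: HBS pH 7.4, 10 mM MgCl2, 10 µM GDP, 1 mM DTT, 4% DMSO; 30°C. KD from a 1:1 binding model.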

[2] = molecular target: GDP-bound NRAS wild-type protein (Homo sapiens, UniProt P01111); assay: Binding to NRAS by surface plasmon resonance (SPR), KD and KD ratio to KRAS
Summary of the method: as §1

[3] = tested on: human lung cancer strain NCI-H441; assay type: cell-based
Summary of the method: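 Signal came from […] measured per well once the reagent was added. Beforehand, cells were cultured at 37°C and 5% carbon dioxide on a compound series serially diluted in dimethyl sulfoxide.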

[4] = ratio of the KD value with respect to HRAS wild-type protein to the KD value with respect to KRAS
[5] = ratio of the KD value with respect to GDP-bound NRAS wild-type protein to the KD value with respect to KRAS
[6] = ratio of KD for HRAS wild-type protein to KD for KRAS
[7] = ratio of KD for GDP-bound NRAS wild-type protein to KD for KRAS

HRAS wild-type protein, sequence (P01112 whole entry): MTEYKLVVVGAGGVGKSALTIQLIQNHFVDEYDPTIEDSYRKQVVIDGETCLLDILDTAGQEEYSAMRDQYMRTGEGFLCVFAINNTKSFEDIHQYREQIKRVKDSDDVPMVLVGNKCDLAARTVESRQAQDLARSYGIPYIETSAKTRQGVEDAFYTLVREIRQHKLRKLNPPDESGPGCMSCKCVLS
GDP-bound NRAS wild-type protein, sequence (P01111 whole entry): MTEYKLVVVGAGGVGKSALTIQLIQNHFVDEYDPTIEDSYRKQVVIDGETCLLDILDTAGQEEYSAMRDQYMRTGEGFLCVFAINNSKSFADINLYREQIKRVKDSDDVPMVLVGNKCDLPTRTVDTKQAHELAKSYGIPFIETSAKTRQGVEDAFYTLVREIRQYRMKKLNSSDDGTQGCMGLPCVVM

SMILES | HRAS /KRAS [1, 4] | NRAS /KRAS [2, 5] | IC50 [3] [nM] | HRAS /KRAS [1, 6] | NRAS /KRAS [2, 7] | HRAS /KRAS ([1]; ratio of KD value for HRAS wild-type protein to KD value for KRAS (SPR)) | NRAS /KRAS ([2]; ratio of KD value for GDP-bound NRAS wild-type protein to KD value for KRAS (SPR))
CC[C@H](C)[C@@H]1NC(=O)[C@H](CC(C)C)N(C)C(=O)C[C@@H](C(=O)N2CCOCC2)N(C)C(=O)[C@H](C2CCCCC2)N(C)C(=O)C2(CCCC2)NC(=O)[C@@H]2CCCN2C(=O)[C@H](CCc2cc(F)c(C(F)(F)F)c(F)c2)NC(=O)CN(C)C(=O)[C@H](Cc2ccc(C(F)(F)F)cc2)N2CCCCC[C@@H](C2=O)N(C)C(=O)CN(C)C1=O [PP0505] | B (a compound having 3 or more and less than 10 is denoted as B) | B (a compound having 3 or more and less than 10 is denoted as B) | 210 |  |  |  | 
CCC[C@H]1C(=O)N[C@@H]([C@@H](C)CC)C(=O)N(C)CC(=O)N(C)[C@H]2C/C=C\CCN(C2=O)[C@@H](Cc2ccc(C(F)(F)F)cc2)C(=O)N(C)CC(=O)N[C@@H](CCc2ccc(Cl)c(Cl)c2)C(=O)N2C[C@H](OCC)C[C@H]2C(=O)NC2(CC(C)(C)C2)C(=O)N(C)[C@@H](C2CCCC2)C(=O)N(C)[C@H](C(=O)N(C)C)CC(=O)N1C [PP1932] | A (a compound having 10 or more and less than 20 is denoted as A) | A (a compound having 10 or more and less than 20 is denoted as A) | 13.1 |  |  |  | 
CCCN1C(=O)CN(C)C(=O)CN(C)C(=O)[C@H](C2CC(F)(F)C2)NC(=O)[C@H](CC(C)C)N(C)C(=O)C[C@@H](C(=O)N2CCOCC2)N(C)C(=O)[C@H](C2CCCC2)N(C)C(=O)C2(CCCC2)NC(=O)[C@@H]2CCCN2C(=O)[C@H](CCc2cc(F)c(C(F)(F)F)c(F)c2)NC(=O)CN(C)C(=O)[C@@H]1Cc1ccc(C(F)(F)F)cc1 [PP0769] ([NMeL][X16][Sar][Sar][NPrPhe(4-CF3)][Sar][hPhe(3,5-F2-4-CF3)]P[Ac5c][NMeGly(cPent)][NMeD]-Morpholide; lactam N-11) |  |  | 43.3 | C (A compound having a KD ratio of 0.1 or more and less than 3 is denoted as C) | B (a compound having 3 or more and less than 10 is denoted as B) |  | 
CCCC[C@H]1C(=O)N[C@@H]([C@@H](C)CC)C(=O)N(C)CC(=O)N(C)[C@H]2C/C=C\CCN(C2=O)[C@@H](Cc2ccc(C)cc2)C(=O)N(C)CC(=O)N[C@@H](CCc2cc(F)c(C(F)(F)F)c(F)c2)C(=O)N2C[C@H](OCC)C[C@H]2C(=O)NC2(CCC2)C(=O)N(C)[C@@H](C2CCCC2)C(=O)N(C)[C@H](C(=O)N(C)CC)CC(=O)N1C [PP2796] |  |  | 9.6 | A (a compound having 10 or more and less than 20 is denoted as A) | A (a compound having 10 or more and less than 20 is denoted as A) |  | 
CCO[C@@H]1C[C@H]2C(=O)NC3(CC(C)(C)C3)C(=O)N(C)[C@@H](C3CCCC3)C(=O)N(C)[C@H](C(=O)N(C)CC)CC(=O)N(C)[C@@H](CC3CC3)C(=O)N[C@@H]([C@@H](C)CC)C(=O)N(C)CC(=O)N(C)[C@H]3C/C=C\CCN(C3=O)[C@@H](Cc3ccc(C(F)(F)F)cc3)C(=O)N(C)CC(=O)N[C@@H](CCc3cc(F)c(C(F)(F)F)c(F)c3)C(=O)N2C1 [PP1648] |  |  | 2.1 |  |  | A (a compound having 10 or more and less than 20 is denoted as A) | A (a compound having 10 or more and less than 20 is denoted as A)
CC[C@H](C)[C@@H]1NC(=O)[C@H](CC(C)C)N(C)C(=O)C[C@@H](C(=O)N2CCOCC2)N(C)C(=O)[C@H](C2CCCC2)N(C)C(=O)C2(CCCC2)NC(=O)[C@@H]2CCCN2C(=O)[C@H](CCc2ccc(C(F)(F)F)c(Cl)c2)NC(=O)CN(C)C(=O)[C@H](Cc2ccc(F)cc2)N(C)C(=O)CN(C)C(=O)CN(C)C1=O [PP0212] ([NMeL]I[Sar][Sar][NMePhe(4-F)][Sar][hPhe(3-Cl-4-CF3)]P[Ac5c][NMeGly(cPent)][NMeD]-Morpholide; lactam N-11) |  |  | 26.6 | C (A compound having a KD ratio of 0.1 or more and less than 3 is denoted as C) | C (A compound having a KD ratio of 0.1 or more and less than 3 is denoted as C) |  | 
